Test results published in patent US9890185B2, “Urea derivatives useful as kinase inhibitors” (Respivert Limited, priority 2013, dated 2018).
pIC50: −log10 of the molar value.

What was measured:
[1] = test system: PBMCs; assay: Cell mitosis assay in PBMCs (assay g); format: cell-based; conditions: Homo sapiens, PBMC, test compound 5 μg/mL
Experimental: Peripheral blood mononucleocytes (PBMCs) from healthy subjects are separated from whole blood (Quintiles, London, UK) using a density gradient (Histopaque®-1077, Sigma-Aldrich, Poole, UK). The PBMCs (3 million cells per sample) are subsequently treated with 2% PHA (phytohaemagglutinin, Sigma-Aldrich, Poole, UK) for 48 hr, followed by a 20 hr exposure to varying concentrations of test compounds. At 2 hr before collection, PBMCs are treated with demecolcine (0.1 μg/mL; Invitrogen, Paisley, UK) to arrest cells in metaphase. To observe mitotic cells, PBMCs are permeabilised and fixed by adding Intraprep (50 μL; Beckman Coulter, France), and stained with anti-phospho-histone 3 (0.26 ng/L; #9701; Cell Signalling, Danvers, Mass.) and propidium iodide (1 mg/mL; Sigma-Aldrich, Poole, UK) as previously described (Muehlbauer P. A. and Schuler M. J., Mutation Research, 2003, 537:117-130). Fluorescence is observed using an ATTUNE flow cytometer (Invitrogen, Paisley, UK), gating for lymphocytes. The percentage inhibition of mitosis is calculated for each treatment relative to vehicle (0.5% DMSO) treatment.

[2] = test system: PBMCs; assay: IFN gamma release in CD3/CD28 stimulated PBMC cells (assay c); format: cell-based; conditions: Homo sapiens, read-out: IC50 Values for Inhibition of Cytokine Release, PBMCs IFNγ
Experimental: (§1) PBMCs from healthy subjects are separated from whole blood using a density gradient (Lymphoprep, Axis-Shield Healthcare). Cells are added to a 96 well plate pre-coated with a mixture of CD3/CD28 monoclonal antibodies (0.3 μg/mL eBioscience and 3 μg/mL BD Pharmingen respectively). Compound at the desired concentration is then added to the wells and the plate left for 3 days under normal tissue culture conditions. Supernatants are harvested and IL-2 and IFN gamma release determined by Sandwich ELISA (Duo-set, R&D System). The IC50 is determined from the dose response curve.

[3] = test system: PBMCs; assay: LPS-induced IL-8 release in PBMC cells (assay b); format: cell-based, human; conditions: Homo sapiens, PBMC; LPS-stimulated PBMCs; read-out: IC50 Values for Inhibition of Cytokine Release, PBMCs IL-8
Summary of the method: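 Cytokines (TNFα, IL-8) in supernatants were quantified by sandwich ELISA after a 24 h challenge with 1 ng/mL E. coli LPS at 37° C, 5% CO2. Healthy-donor PBMCs had been exposed to compound for 2 h beforehand. IC50 values were fitted from the concentration-response curves.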

[4] = target: c-Src (Homo sapiens (Human), UniProt P12931); assay: c-Src enzyme inhibition (FRET, Z-LYTE); format: biochemical
Chain of c-Src (P12931 whole entry, looked up): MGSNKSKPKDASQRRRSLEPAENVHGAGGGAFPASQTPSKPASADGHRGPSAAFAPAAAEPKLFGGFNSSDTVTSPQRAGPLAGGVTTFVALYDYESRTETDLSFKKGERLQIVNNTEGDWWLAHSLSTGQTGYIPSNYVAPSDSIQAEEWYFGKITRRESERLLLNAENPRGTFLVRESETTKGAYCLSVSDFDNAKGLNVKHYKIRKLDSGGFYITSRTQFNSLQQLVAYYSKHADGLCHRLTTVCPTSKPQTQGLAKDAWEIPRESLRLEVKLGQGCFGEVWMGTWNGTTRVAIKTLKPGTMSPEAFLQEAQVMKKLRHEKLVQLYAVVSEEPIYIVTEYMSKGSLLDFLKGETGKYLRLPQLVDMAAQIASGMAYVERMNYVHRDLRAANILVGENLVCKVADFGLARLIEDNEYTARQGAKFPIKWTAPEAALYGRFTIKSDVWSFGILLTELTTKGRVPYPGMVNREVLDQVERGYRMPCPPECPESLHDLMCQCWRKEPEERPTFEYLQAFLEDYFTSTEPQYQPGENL
Summary of the method: (§2)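 Z-LYTE FRET; enzyme + cpd 2 hr RT, then peptide + ATP 1 hr (ATP added soln: c-Src 800 μM, Syk 60 μM); protease 1 hr. Donor/acceptor emission ratio, % inhib vs uninhibited control, IC50 from curve.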

[5] = target: Syk (Homo sapiens (Human), UniProt P43405); assay: Syk enzyme inhibition (FRET, Z-LYTE); format: biochemical
Summary of the method: as §2

[6] = test system: PBMCs; assay: IL-2 release in CD3/CD28 stimulated PBMC cells (assay c); format: cell-based; conditions: Homo sapiens, read-out: IC50 Values for Inhibition of Cytokine Release, PBMCs IL-2
Experimental: as §1

[7] = test system: d-U937 cells; assay: Accumulation of β catenin in d-U937 cells (assay m); format: cell-based, human; conditions: percentage relative to Reference Compound at 1 μg/mL
Summary of the method: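 Read-out: colourimetric cell-based immunoassay for endogenous β-catenin (OD450 minus 655 reference), normalised to crystal violet absorbance at 595 nm. Test compound or vehicle was applied for 18 hr to U937 monocytes first differentiated with PMA (100 ng/mL) for 48–72 hr.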

[8] = target: GSK 3α (Homo sapiens (Human), UniProt P49840); assay: GSK 3α enzyme inhibition (FRET, Z-LYTE, Method 2); format: biochemical; conditions: read-out: IC50 Values for Enzyme Inhibition, GSK3α
Chain of GSK 3α (P49840 whole entry): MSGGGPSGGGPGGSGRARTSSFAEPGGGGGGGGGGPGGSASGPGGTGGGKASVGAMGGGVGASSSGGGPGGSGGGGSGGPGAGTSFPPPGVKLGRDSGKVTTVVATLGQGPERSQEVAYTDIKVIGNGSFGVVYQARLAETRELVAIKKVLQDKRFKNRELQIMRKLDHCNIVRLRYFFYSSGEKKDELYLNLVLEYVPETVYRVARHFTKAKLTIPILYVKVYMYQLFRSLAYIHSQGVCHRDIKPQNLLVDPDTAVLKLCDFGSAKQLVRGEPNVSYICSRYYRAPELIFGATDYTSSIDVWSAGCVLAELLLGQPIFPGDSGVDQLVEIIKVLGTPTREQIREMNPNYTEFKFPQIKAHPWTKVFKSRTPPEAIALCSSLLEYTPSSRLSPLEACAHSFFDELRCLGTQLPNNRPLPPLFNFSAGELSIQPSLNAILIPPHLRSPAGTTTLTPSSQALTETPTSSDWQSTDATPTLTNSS
Summary of the method: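 Recombinant human GSK3α was preincubated with compound (stocks 4, 0.4, 0.04 or 0.004 μg/mL) at RT, 2 hr for Method 1 and 105 min for Method 2. FRET peptide (8 μM stock) and ATP (40 μM stock) were added for 1 hr, then protease development for 1 hr. IC50 was taken from concentration–response curves.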

[9] = target: p38 MAPKα isoform (MAPK14) (Homo sapiens (Human), UniProt Q16539); assay: p38 MAPKα enzyme inhibition (FRET, Z-LYTE, Method 2); format: biochemical
Chain of p38 MAPKα isoform (MAPK14) (Q16539 whole entry, canonical isoform): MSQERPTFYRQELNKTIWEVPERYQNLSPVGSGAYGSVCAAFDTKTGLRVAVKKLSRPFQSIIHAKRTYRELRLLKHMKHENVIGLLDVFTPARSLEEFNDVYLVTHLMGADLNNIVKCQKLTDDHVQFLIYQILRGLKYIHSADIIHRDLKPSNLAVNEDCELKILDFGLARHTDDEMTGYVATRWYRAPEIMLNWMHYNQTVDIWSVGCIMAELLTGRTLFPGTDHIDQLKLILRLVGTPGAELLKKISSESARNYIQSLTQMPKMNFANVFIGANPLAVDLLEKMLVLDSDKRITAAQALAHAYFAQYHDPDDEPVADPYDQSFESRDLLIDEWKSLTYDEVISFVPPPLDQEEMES
Summary of the method: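 Z-LYTE FRET: p38 MAPKα (80 ng/mL for Method 1, 200 ng/mL for Method 2, pre-dilution) preincubated 2 hr RT with compound (4–0.004 μg/mL solutions), activity read via MAPKAP-K2 phosphorylation after 1 hr RT and 1 hr protease development. Coumarin/fluorescein ratio gives phosphorylation; % inhibition versus uninhibited control, IC50 from concentration-response curve.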

Compound	inhibition at 5 µg/mL [1]	pIC50 [2]	pIC50 [3]	pIC50 [4]	pIC50 [5]	pIC50 [6]	% β-catenin induction ([7]; test compound 1 μg/mL)	% β-catenin induction ([7]; test compound 5 μg/mL)	% β-catenin induction ([7]; test compound 10 μg/mL)	pIC50 [8]	pIC50 [9]
COc1c(NC(=O)Nc2ccc(Oc3ccnc(Nc4cnccn4)c3)c3ccccc23)cc(C(C)(C)C)cc1P(C)(C)=O [15(aa), 1-(5-(tert-butyl)-3-(dimethylphosphoryl)-2-methoxyphenyl)-3-(4-((2-(pyrazin-2-ylamino)pyridin-4-yl)oxy)naphthalen-1-yl)urea]	98.1%	7.83	9.10	7.34	6.94	7.23	50.5%	58.5%	49.5%	6.72	–
COCCOCCOCCNC(=O)c1cc(Nc2cc(Oc3ccc(NC(=O)Nc4cc(C(C)(C)C)cc(S(C)(=O)=O)c4OC)c4ccccc34)ccn2)cc(OC)c1 [38(ab), 3-((4-((4-(3-(5-(tert-Butyl)-2-methoxy-3-(methylsulfonyl)phenyl)ureido)naphthalen-1-yl)oxy)pyridin-2-yl)amino)-5-methoxy-N-(2-(2-(2-methoxyethoxy)ethoxy)ethyl)benzamide]	30.7%	7.96	8.85	7.21	< 5.92	6.50	–	–	–	5.32	7.30
COc1cc(Nc2cc(Oc3ccc(NC(=O)Nc4cc(C(C)(C)C)cc(CC(N)=O)c4OC)c4ccccc34)ccn2)cc(S(=O)(=O)C2CC2)c1 [38(ad), 2-(5-(tert-Butyl)-3-(3-(4-((2-((3-(cyclopropylsulfonyl)-5-methoxyphenyl)amino)pyridin-4-yl)oxy)naphthalen-1-yl)ureido)-2-methoxyphenyl)acetamide]	14.5%	7.96	8.66	6.81	< 5.86	6.67	–	–	–	4.96	7.06
COc1cccc(Nc2cc(Oc3ccc(NC(=O)Nc4cc(C(C)(C)C)cc(CC(N)=O)c4OC)c(Cl)c3Cl)ccn2)c1 [38(af), 2-(5-(tert-Butyl)-3-(3-(2,3-dichloro-4-((2-((3-methoxyphenyl)amino)pyridin-4-yl)oxy)phenyl)ureido)-2-methoxyphenyl)acetamide]	89.3%	8.35	8.59	7.36	6.60	7.20	–	–	–	6.00	–
COc1cc(C#N)cc(Nc2cc(Oc3ccc(NC(=O)Nc4cc(C(C)(C)C)cc(CC(N)=O)c4OC)c4ccccc34)ccn2)c1 [38(ah), 2-(5-(tert-Butyl)-3-(3-(4-((2-((3-cyano-5-methoxyphenyl)amino)pyridin-4-yl)oxy)naphthalen-1-yl)ureido)-2-methoxyphenyl)acetamide]	6.7%	7.97	8.64	6.51	< 5.81	6.46	–	–	–	4.86	6.21
COc1cc(Nc2cc(Oc3ccc(NC(=O)Nc4cc(C(C)(C)C)cc(CC(N)=O)c4OC)c4ccccc34)ccn2)cc(S(=O)(=O)N(C)C)c1 [38(aj), 2-(5-(tert-Butyl)-3-(3-(4-((2-((3-(N,N-dimethylsulfamoyl)-5-methoxyphenyl)amino)pyridin-4-yl)oxy)naphthalen-1-yl)ureido)-2-methoxyphenyl)acetamide]	-1%	8.02	8.68	6.66	< 5.86	6.47	–	–	–	< 4.88	6.53
COc1c(NC(=O)Nc2ccc(Oc3ccnc(NCc4ccccc4)n3)c3ccccc23)cc(C(C)(C)C)cc1P(C)(C)=O [38(g), 1-(4-((2-(Benzylamino)pyrimidin-4-yl)oxy)naphthalen-1-yl)-3-(5-(tert-butyl)-3-(dimethylphosphoryl)-2-methoxyphenyl)urea]	28.8%	7.65	8.48	–	–	5.79	4.5%	24.5%	38.0%	5.62	8.05
COc1cc(Nc2cc(Oc3ccc(NC(=O)Nc4cc(C(C)(C)C)cc(CNC(C)=O)c4OC)c4ccccc34)ccn2)cc(C(=O)NCCN2CCOCC2)c1 [38(t), 3-((4-((4-(3-(3-(Acetamidomethyl)-5-(tert-butyl)-2-methoxyphenyl)ureido)naphthalen-1-yl)oxy)pyridin-2-yl)amino)-5-methoxy-N-(2-morpholinoethyl)benzamide]	77.3%	8.13	9.15	–	–	6.54	–	–	–	6.08	–
COc1c(NC(=O)Nc2ccc(Oc3ccnc(Nc4cc(C#N)cc(OCCCN5CCOCC5)c4)c3)c3ccccc23)cc(C(C)(C)C)cc1[S+](C)[O-] (centres unmarked) [79(e), 1-(5-tert-Butyl-2-methoxy-3-methylsulfinyl-phenyl)-3-[4-[[2-[3-cyano-5-(3-morpholinopropoxy)anilino]-4-pyridyl]oxy]-1-naphthyl]urea]	72.4%	8.16	8.39	7.09	< 5.92	7.28	–	–	–	–	6.57
COc1c(CNC(C)=O)cc(C(C)(C)C)cc1NC(=O)Nc1ccc(Oc2ccnc(Nc3cc(C#N)cc(OCCN4CCOCC4)c3)c2)c2ccccc12 [Example 50, N-(5-(tert-Butyl)-3-(3-(4-((2-((3-cyano-5-(2-morpholinoethoxy)phenyl)amino)pyridin-4-yl)oxy)naphthalen-1-yl)ureido)-2-methoxybenzyl)acetamide]	57.7%	9.05	8.92	7.40	6.10	7.52	–	–	–	5.49	–
COc1cc(Nc2cc(Oc3ccc(NC(=O)Nc4cc(C(C)(C)C)cc(C(=O)NCCN5CCOCC5)c4OC)c4ccccc34)ccn2)cc(C(N)=O)c1 [Example 61, 5-(tert-Butyl)-3-(3-(4-((2-((3-carbamoyl-5-methoxyphenyl)amino)pyridin-4-yl)oxy)naphthalen-1-yl)ureido)-2-methoxy-N-(2-morpholinoethyl)benzamide]	68.7%	8.80	8.72	–	–	8.11	–	–	–	5.79	6.68
COc1cc(Nc2cc(Oc3ccc(NC(=O)Nc4cc(C(C)(C)C)cc(CC(N)=O)c4OC)c4ccccc34)ccn2)ccc1C(=O)NCCN1CCOCC1 [Example 70, 4-((4-((4-(3-(3-(2-Amino-2-oxoethyl)-5-(tert-butyl)-2-methoxyphenyl)ureido)naphthalen-1-yl)oxy)pyridin-2-yl)amino)-2-methoxy-N-(2-morpholinoethyl)benzamide]	62.8%	7.95	8.64	–	–	7.01	–	–	–	5.64	7.55
